# Results taken from patent US20170049725A9, “COMBINATION CANCER TREATMENT” (WISCONSIN ALUMNI RESEARCH FOUNDATION, priority 2014, published 2017).
# Entries after “also recorded” stand apart in the source; their conditions may differ.
# Columns and labels:
# [1] = test system: GILM2 cells; experiment: Crystal violet cell survival assay; conditions: for cytotoxicity of agent alone (cell confluence of surviving cells): metformin 5 mM or agonist 1.5 μg/ml alone
# Protocol: (§1) Top panel: representative images.
# (§2) Crystal violet cell survival assay: Cells were seeded overnight on 6-well plates (3×10^5 cells/well). […] Surviving cells were fixed and stained with crystal violet as described in the art. The percentage of cell confluence was determined using NIH Image J software.
# [2] = test system: metastatic breast cancer cells; conditions: cited from earlier work
# [3] = test system: transformed MCF-10A-RasV12 cells; experiment: MTS cell viability assay; assay type: cell-based, Human
# Protocol: (§5) Untransformed MCF-10A-Vector and transformed MCF-10A-RasV12 cells were untreated or preincubated with metformin (MF, 5 mM) for 48 hours and then treated with TRAIL (1.5 μg/ml), mapatumumab (1.5 μg/ml), or lexatumumab (1.5 μg/ml) for an additional 24 hours. Cell viability was determined by MTS assay and expressed as fold-change relative to untreated controls. **P<0.01 or ***P<0.001 versus controls.
# (§6) Cell viability assay: An MTS cell viability assay was performed as known in the art. Briefly, cells were plated overnight in 96-well plates (3×10^3 cells/well). Cells were then untreated or preincubated with metformin (5 mM) for 48 hours before adding lexatumumab (1.5 μg/ml), mapatumumab (1.5 μg/ml) or TRAIL (1.5 μg/ml). Cell viability was assessed 24 hours later. Cell viability was determined in triplicate wells and expressed as the fold-change relative to untreated controls.
# [4] = test system: untransformed MCF-10A-Vector cells; experiment: MTS cell viability assay; assay type: cell-based, Human; conditions: metformin 5 mM or agonist 1.5 μg/ml alone
# Protocol: as §5, §6
# [5] = test system: DU145 cells; experiment: Crystal violet cell survival assay; assay type: cell-based, Human
# From the text: as §1
# [6] = test system: HT29 cells; experiment: Crystal violet cell survival assay; assay type: cell-based, Human
# From the text: as §1
# [7] = test system: transformed MCF-10A-RasV12 cells; experiment: Crystal violet cell survival assay; assay type: cell-based, Human; conditions: metformin 5 mM 48 hours preincubation
# Protocol: as §1, §2
# [8] = test system: untransformed MCF-10A-Vector cells; experiment: Crystal violet cell survival assay; assay type: cell-based, Human; conditions: metformin 5 mM
# Protocol: as §1, §2
# [9] = test system: caspase-3 and PARP in GILM2 carcinoma cells; experiment: Immunoblotting of caspase activation (procaspase-3, PARP); assay type: cell-based, Human; conditions: metformin 5 mM 48 hours, then TRAIL 1.5 μg/ml 16 hours
# [10] = test system: caspase-3 and PARP in HT29 carcinoma cells; experiment: as above; assay type: cell-based, Human; conditions: metformin 5 mM 48 hours, then TRAIL 1.5 μg/ml 16 hours
# [11] = test system: caspase-3 and PARP in DU145 carcinoma cells; experiment: as above; assay type: cell-based, Human; conditions: metformin 5 mM 48 hours, then TRAIL 1.5 μg/ml 16 hours
# [12] = test system: caspase-3 and PARP in MCF-10A-RasV12 cells; experiment: as above; assay type: cell-based, Human; conditions: metformin 5 mM 48 hours, then TRAIL 1.5 μg/ml 16 hours
# [13] = test system: caspase-3 and PARP in MCF-10A-Vector cells; experiment: as above; assay type: cell-based, Human; conditions: metformin 5 mM 48 hours, then TRAIL 1.5 μg/ml 16 hours
# [14] = test system: TRAIL-R1 mRNA in GILM2 cells; experiment: TRAIL receptor mRNA levels by real-time PCR; assay type: cell-based, Human; conditions: 5 mM metformin for 72 hours, normalized to control media
# Protocol: GILM2 breast cancer cells were cultured in control media or media containing 5 mM metformin (MF) for 72 hours, and total RNA was then isolated. TRAIL-R2 and TRAIL-R1 mRNA levels were measured by real-time PCR and normalized to expression in GILM2 cells grown in control media.
# To determine whether metformin sensitizes cancer cells to TRAIL by increasing the expression of its proapoptotic receptors (TRAIL-R1 and TRAIL-R2), GILM2 cells were treated with metformin for 72 hours, and then TRAIL receptor mRNA levels were measured by real-time PCR.
# [15] = test system: TRAIL-R1 on GILM2 cells; experiment: Cell surface expression of TRAIL receptors by flow cytometry; assay type: cell-based, Human; conditions: 5 mM metformin for 72 hours
# Protocol: GILM2 cells were grown in control media or media containing 5 mM metformin for 72 hours, incubated with control IgG, TRAIL-R1 or TRAIL-R2 mAb, and analyzed by flow cytometry.
# To determine whether metformin enhances the cell surface expression of TRAIL receptors in cancer cells, GILM2 cells were treated with metformin for 72 hours, and the cell surface expression of TRAIL-R2 and TRAIL-R1 was determined by flow cytometry.
# [16] = test system: XIAP in MDA-MB-231 breast cancer cells; experiment: Immunoblot of XIAP expression; assay type: cell-based; conditions: 5 mM metformin for 72 hours
# Protocol: (§3) Immunoblot of XIAP expression in MDA-MB-231, GILM2 and MDA-MB-468 breast cancer cell lines grown in control media (V) or media containing 5 mM metformin (MF) for 72 hours.
# (§4) Without being held to theory, it was postulated that metformin might sensitize cancer cells to TRAIL by downregulating XIAP.
# [17] = test system: XIAP in MDA-MB-468 breast cancer cells; experiment: Immunoblot of XIAP expression; assay type: cell-based; conditions: 5 mM metformin for 72 hours
# Protocol: as §3, §4
# [18] = test system: XIAP in GILM2 breast cancer cells; experiment: Immunoblot of XIAP expression; assay type: cell-based, Human; conditions: 5 mM metformin for 72 hours
# Protocol: as §3, §4
# [19] = test system: GILM2-mCherry mammary tumors; experiment: Orthotopic model of metastatic triple-negative breast cancer; assay type: in vivo, female NSG mice; conditions: NSG mice; TRAIL 10 mg/kg i.p. daily for two weeks; metformin 250 mg/mL in drinking water; alone or combined
# Protocol: GILM2-mCherry cells (1×10^6) were injected intraductally into both 4th mammary glands of female NOD scid IL2 receptor γ chain knockout (NSG) mice. Mice were randomized into 4 groups (10 mice per group): vehicle, TRAIL alone (10 mg/kg i.p. daily for two weeks), metformin alone (250 mg/mL in drinking water), or the combination of these doses of metformin and TRAIL. Mice were treated with metformin beginning three weeks after tumor inoculation and throughout the study; TRAIL treatment was initiated 3.5 weeks after tumor cell inoculation.
# To determine whether metformin augments the antitumor effects of TRAIL in an orthotopic model of metastatic triple-negative breast cancer, female NSG mice bearing established GILM2-mCherry mammary tumors were treated with vehicle, metformin alone, TRAIL alone or the combination of metformin and TRAIL.
# [20] = test system: GILM2 breast carcinoma cells; experiment: MTS cell viability assay
# Protocol: (§7) Human GILM2, HT29 and DU145 carcinoma cells were untreated or preincubated with metformin (MF, 5 mM) for 48 hours and then treated with TRAIL (1.5 μg/ml), mapatumumab (1.5 μg/ml), or lexatumumab (1.5 μg/ml) for an additional 24 hours. Cell viability was determined by MTS assay and expressed as fold-change relative to untreated controls. *P<0.05, **P<0.01 or ***P<0.001 versus controls.
# as §6
# [21] = test system: HT29 colon cancer cells; experiment: MTS cell viability assay
# Protocol: as §7, §6
# [22] = test system: DU145 prostate carcinoma cells; experiment: MTS cell viability assay
# Protocol: as §7, §6
# [23] = metformin 5 mM 48 hours preincubation, then TRAIL 1.5 μg/ml 24 hours
# [24] = metformin 5 mM 48 hours preincubation, then lexatumumab 1.5 μg/ml 24 hours
# [25] = metformin 5 mM 48 hours preincubation, then mapatumumab 1.5 μg/ml 24 hours
# [26] = metformin 5 mM or agonist 1.5 μg/ml alone
compound,measurement,setting,value
lexatumumab: fully human IgG1 agonistic monoclonal antibody that binds TRAIL-R2/DR5,cytotoxicity of agent alone (cell confluence of surviving cells),[1],modest cell death
same,"sensitivity to apoptosis induction, compared with mapatumumab",[2],more sensitive
"CN(C)C(=N)NC(=N)N [metformin, N,N-dimethylimidodicarbonimidic diamide]",sensitivity to TRAIL (cell viability),[3]; [23],enhanced the sensitivity
same,sensitivity to lexatumumab (cell viability),[3]; [24],enhanced the sensitivity
same,sensitivity to mapatumumab (cell viability),[3]; [25],not
same,"effect on cell viability, agent individually",[3]; [26],only modest effects
same,"effect on cell viability, agent individually",[4],largely resistant
same,cytotoxicity of TRAIL (cell confluence of surviving cells),[1]; [23],increased the cytoxicity
same,cytotoxicity of lexatumumab (cell confluence of surviving cells),[1]; [24],increased the cytoxicity
same,cytotoxicity of mapatumumab (cell confluence of surviving cells),[1]; [25],increased the cytoxicity; also recorded: more modest
same,cytotoxicity of agent alone (cell confluence of surviving cells),[1],modest cytoxicity
same,cytotoxicity of TRAIL (cell confluence of surviving cells),"[5]; metformin 5 mM 48 hours preincubation, then TRAIL 1.5 μg/ml 48 hours",increased the cytoxicity
same,cytotoxicity of lexatumumab (cell confluence of surviving cells),"[5]; metformin 5 mM 48 hours preincubation, then lexatumumab 1.5 μg/ml 48 hours",increased the cytoxicity
same,cytotoxicity of mapatumumab (cell confluence of surviving cells),"[5]; metformin 5 mM 48 hours preincubation, then mapatumumab 1.5 μg/ml 48 hours",increased the cytoxicity
same,cytotoxicity of agent alone (cell confluence of surviving cells),[5]; [26],modest cytoxicity
same,cytotoxicity of TRAIL (cell confluence of surviving cells),[6]; [23],increased the cytoxicity
same,cytotoxicity of lexatumumab (cell confluence of surviving cells),[6]; [24],increased the cytoxicity
same,cytotoxicity of mapatumumab (cell confluence of surviving cells),[6]; [25],increased the cytoxicity; also recorded: more modest
same,cytotoxicity of agent alone (cell confluence of surviving cells),[6]; [26],more robust cytotoxicity
same,sensitization to TRAIL (cell survival),[7]; then TRAIL 1.5 μg/ml 24 hours,dramatically sensitized
same,sensitization to lexatumumab (cell survival),[7]; then lexatumumab 1.5 μg/ml 24 hours,dramatically sensitized
same,effect on mapatumumab-induced cell death,[7]; then mapatumumab 1.5 μg/ml 24 hours,only a modest effect
same,effect of metformin alone on cell survival,[8],little effect
same,TRAIL-induced proteolysis of the caspase substrate PARP,[9],increased
same,TRAIL-induced proteolytic activation of procaspase-3,[9],augmented
same,TRAIL-induced proteolysis of the caspase substrate PARP,[10],increased
same,TRAIL-induced proteolytic activation of procaspase-3,[10],augmented
same,TRAIL-induced proteolysis of the caspase substrate PARP,[11],increased
same,TRAIL-induced proteolytic activation of procaspase-3,[11],augmented
same,TRAIL-induced proteolytic cleavage of PARP,[12],enhanced
same,TRAIL-induced proteolytic cleavage of procaspase-3,[12],enhanced
same,TRAIL-induced proteolytic cleavage of PARP,[13],little effect
same,TRAIL-induced proteolytic cleavage of procaspase-3,[13],little effect
same,TRAIL-R1 mRNA levels,[14],modestly reduced
same,cell surface expression of TRAIL-R1,[15],did not significantly affect
same,XIAP protein levels,[16],reduction
same,XIAP protein levels,[17],reduction
same,XIAP protein levels,[18],reduction
same,lung metastases,[19],no significant effect
same,mammary tumor growth,[19],no significant effect
same,sensitivity to TRAIL (cell viability),[20]; [23],enhanced the sensitivity
same,sensitivity to lexatumumab (cell viability),[20]; [24],enhanced the sensitivity
same,cytotoxicity of mapatumumab (cell viability),[20]; [25],did not augment the cytotoxicity
same,"effect on cell viability, agent individually",[20]; [26],modest or no significant effect
same,sensitivity to TRAIL (cell viability),[21]; [23],enhanced the sensitivity
same,sensitivity to lexatumumab (cell viability),[21]; [24],enhanced the sensitivity
same,cytotoxicity of mapatumumab (cell viability),[21]; [25],did not augment the cytotoxicity
same,"effect on cell viability, agent individually",[21]; [26],modest or no significant effect
same,sensitivity to TRAIL (cell viability),[22]; [23],enhanced the sensitivity
same,sensitivity to lexatumumab (cell viability),[22]; [24],enhanced the sensitivity
same,cytotoxicity of mapatumumab (cell viability),[22]; [25],did not augment the cytotoxicity
same,"effect on cell viability, agent individually",[22]; [26],modest or no significant effect
"TRAIL: Soluble recombinant TRAIL corresponding to amino acids 95-281 of the protein, expressed in bacteria, His-tagged",lung metastases,[19],inhibited
same,mammary tumor growth,[19],inhibited
